# Results from patent US20210330603A1 (priority 2020, published 2021).
# Assays:
# EHEC [1] = assay: Western blots of secreted translocon components EspA and EspB, EHEC (LEE-encoded T3SS activity); assay type: cell-based, Escherichia coli O157:H7
# CpxA = biological target: T1, CpxA (Escherichia coli O157:H7, UniProt P0AE84); assay: Autophosphorylation of CpxA in liposomes; assay type: biochemical; conditions: 10 μM 2-AG, 120 seconds or 10 minutes
# T1 construct: made in house; host or cells: E. coli BL21(DE3) (printed 'B121 DE3'), IPTG induction, Ni-NTA purification
# T1 sequence (P0AE84 1-457): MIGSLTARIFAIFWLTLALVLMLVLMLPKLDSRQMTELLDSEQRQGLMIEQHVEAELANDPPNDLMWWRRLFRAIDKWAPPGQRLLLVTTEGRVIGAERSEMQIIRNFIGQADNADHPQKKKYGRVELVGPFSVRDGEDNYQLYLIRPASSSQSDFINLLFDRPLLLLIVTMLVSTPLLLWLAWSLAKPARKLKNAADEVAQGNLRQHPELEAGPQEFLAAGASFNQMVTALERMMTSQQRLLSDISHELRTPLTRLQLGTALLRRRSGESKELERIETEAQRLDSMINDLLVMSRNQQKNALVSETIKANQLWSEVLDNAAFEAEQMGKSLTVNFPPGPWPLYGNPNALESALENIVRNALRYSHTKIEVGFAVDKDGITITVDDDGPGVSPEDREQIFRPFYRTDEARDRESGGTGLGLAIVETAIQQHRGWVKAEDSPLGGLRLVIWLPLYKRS
# EHEC [2] = assay: Western blots of lysate-associated EspA, EspB and Tir in EHEC; assay type: cell-based, Escherichia coli O157:H7; conditions: late-log phase
# EHEC [3] = assay: Growth curves of EHEC in the presence of AA and AG (FIG. 22); assay type: cell-based, Escherichia coli; conditions: concentrations of 80 and 160 μM
# From the text: (§1) FIG. 22. Growth curves for Staphylococcus aureus (left side graphs) and EHEC (right side graphs) in the presence of AA (top graphs) and AG (bottom graphs).
# (§2) Some lipids are antimicrobial with respect to certain bacteria.
# S. Typhimurium [4] = assay: SipA secretion by S. Typhimurium under SPI-1-inducing conditions; assay type: cell-based, Salmonella enterica serovar Typhimurium; conditions: 10 μM 2-AG
# S. Typhimurium [5] = assay: Growth curves of S. Typhimurium under SPI-1-inducing conditions; assay type: cell-based, Salmonella enterica serovar Typhimurium; conditions: 10 μM 2-AG
# S. Typhimurium [6] = assay: Macrophage infection, intramacrophagic survival of S. Typhimurium in J774.1 murine macrophages; assay type: cell-based, Salmonella enterica serovar Typhimurium
# EHEC [7] = assay: Growth kinetics of EHEC under LEE-inducing conditions (FIG. 11); assay type: cell-based, Escherichia coli O157:H7; conditions: 10 μM 2-AG, microaerobic, DMEM-low glucose
# EHEC [8] = assay type: cell-based, Escherichia coli O157:H7
# FusK = assay: qRT-PCR of LEE-encoded tir in EHEC ΔfusK; assay type: cell-based, Escherichia coli O157:H7; conditions: 20 μM 2-AG, aerobic
# C. rodentium [9] = assay: Western blots of secreted translocon components EspA and EspB, C. rodentium; assay type: cell-based, Citrobacter rodentium; conditions: physiological concentrations of 2-AG, late-log phase
# C. rodentium [10] = assay type: cell-based, Citrobacter rodentium
# EHEC [11] = assay: Fluorescent actin staining (FAS) assay, EHEC pedestal formation on HeLa cells; assay type: cell-based, Escherichia coli O157:H7; conditions: EHEC treated with 10 μM 2-AG prior to infection of HeLa cells
# C. rodentium [12] = assay: Growth kinetics of C. rodentium under LEE-inducing conditions (FIG. 11); assay type: cell-based, Citrobacter rodentium; conditions: 10 μM 2-AG, microaerobic, DMEM-low glucose
# S. Typhimurium [13] = assay: Transcript levels of SPI-2 genes in S. Typhimurium; assay type: cell-based, Salmonella enterica serovar Typhimurium; conditions: 10 μM 2-AG, SPI-2-inducing conditions, 3 hours
# S. Typhimurium [14] = assay: Targeted qPCR of SPI-1 genes in S. Typhimurium; assay type: cell-based, Salmonella enterica serovar Typhimurium; conditions: 10 μM 2-AG, SPI-1-inducing conditions, late-log phase
# EHEC [15] = assay type: cell-based, Escherichia coli O157:H7; remark: listed apart in the source
# S. Typhimurium [16] = assay: Epithelial invasion assay, S. Typhimurium on HeLa cells; assay type: cell-based, Salmonella enterica serovar Typhimurium; conditions: ST treated with 10 μM 2-AG prior to infection of HeLa cells
# QseC = biological target: T2, QseC (Escherichia coli O157:H7, UniProt Q8X524); assay: Autophosphorylation of QseC in liposomes; assay type: biochemical
# T2 construct: Myc (C); His (C); made in house; host or cells: E. coli BL21(DE3) (printed 'B121 DE3'), arabinose induction, Ni-NTA purification
# Staphylococcus aureus = assay: Growth curves of Staphylococcus aureus in the presence of AA and AG (FIG. 22); assay type: cell-based
# From the text: as §1, §2
# EHEC strain 86-24 = assay: qPCR of espA in EHEC grown in LG-DMEM with CBD; assay type: cell-based, Escherichia coli O157:H7
# Citrobacter rodentium = assay: Cannabidiol treatment of C. rodentium infected mice (fecal colony counts); assay type: in vivo, mouse; conditions: single dose one-day post-infection
# EHEC 86-24 [17] = assay: Growth rate and growth yield of EHEC with CBD; assay type: cell-based, Escherichia coli O157:H7
# EHEC 86-24 [18] = assay: EspA immunoblot of EHEC grown with CBD; assay type: cell-based, Escherichia coli O157:H7; conditions: 50 μM CBD
# C. rodentium [19] = assay: Pharmacological inhibition of MgI in C. rodentium infected mice (FIG. 23); assay type: in vivo, mouse
# [20] = physiological concentrations of 2-AG, late-log phase
# T2 sequence (Q8X524 whole entry): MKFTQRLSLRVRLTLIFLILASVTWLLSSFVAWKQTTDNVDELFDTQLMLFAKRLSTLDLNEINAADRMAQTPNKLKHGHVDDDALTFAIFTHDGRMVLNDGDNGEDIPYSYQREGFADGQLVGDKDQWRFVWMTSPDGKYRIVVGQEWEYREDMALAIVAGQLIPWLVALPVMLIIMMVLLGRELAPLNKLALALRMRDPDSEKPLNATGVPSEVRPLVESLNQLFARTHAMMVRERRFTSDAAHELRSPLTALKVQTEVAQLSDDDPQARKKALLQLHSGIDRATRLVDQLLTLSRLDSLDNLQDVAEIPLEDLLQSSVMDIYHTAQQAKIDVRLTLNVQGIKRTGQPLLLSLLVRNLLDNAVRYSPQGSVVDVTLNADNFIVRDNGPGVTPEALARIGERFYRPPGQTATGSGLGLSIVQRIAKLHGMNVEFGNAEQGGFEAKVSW
structure (smiles),measurement,setting,value
"CCCCC/C=C\C/C=C\C/C=C\C/C=C\CCCC(=O)OC[C@@H](O)CO [1-AG, reference compound]",LEE-encoded T3SS activity (EspA and EspB secretion),"EHEC [1]; 1-AG in contrast to 2-AG, late-log phase",does not attenuate LEE-encoded T3SS activity
"CCCCC/C=C\C/C=C\C/C=C\C/C=C\CCCC(=O)OC(CO)CO [2-AG, 2-arachidonoyl-glycerol]",activity of CpxA (autophosphorylation),CpxA,did not inhibit
same,protein expression of EspA in EHEC lysates,EHEC [2],significantly decreased
same,protein expression of EspB in EHEC lysates,EHEC [2],significantly decreased
same,protein expression of Tir in EHEC lysates,EHEC [2],significantly decreased
same,growth of EHEC,EHEC [3],does not inhibit growth
same,secretion of SipA,S. Typhimurium [4],decreased secretion of SipA
same,S. Typhimurium growth kinetics,S. Typhimurium [5],did not alter
same,survival within macrophages,S. Typhimurium [6],decreased survival within macrophages
same,growth of EHEC,EHEC [7],did not correspond with altered growth
same,differentially expressed KEGG pathways (RNAseq),EHEC [8],significantly altered the expression four KEGG pathways
same,expression of LEE-encoded genes (RNAseq),EHEC [8],significant downregulation of numerous LEE-encoded genes
same,non-LEE encoded genes differentially expressed (RNAseq),EHEC [8],few non-LEE encoded genes were differentially expressed
same,activity of FusK,FusK,did not inhibit
same,"EspA secretion, C. rodentium",C. rodentium [9],significantly reduced
same,"EspB secretion, C. rodentium",C. rodentium [9],significantly reduced
same,expression of LEE-encoded genes in C. rodentium,C. rodentium [10],decreased expression of LEE-encoded genes
same,pedestal formation on epithelial cells (A/E lesion formation),EHEC [11],decreased pedestal formation
same,growth of C. rodentium,C. rodentium [12],did not correspond with altered growth
same,expression of ssaV,S. Typhimurium [13],decreased expression
same,expression of sseF,S. Typhimurium [13],decreased expression
same,LEE activity in isogenic fadL mutant,"EHEC [1]; EHEC ΔfadL, 10 μM 2-AG",no longer inhibited
same,"EspA secretion, EHEC",EHEC [1]; [20],significantly reduced
same,"EspB secretion, EHEC",EHEC [1]; [20],significantly reduced
same,LEE functional activity in the qseC mutant in EHEC,"EHEC [1]; qseC isogenic mutant, 10 μM 2-AG",not affected
same,expression of hilD,S. Typhimurium [14],inhibits expression
same,expression of sipA,S. Typhimurium [14],inhibits expression
same,expression of sopB,S. Typhimurium [14],inhibits expression
same,"LEE transcription, targeted qPCR of LEE-encoded genes spanning its five operons",EHEC [15],inhibitory effects of 2-AG on LEE transcription were confirmed
same,transcription of Shiga toxin (stx2a),EHEC [15],no transcriptional effect
same,epithelial invasiveness,S. Typhimurium [16],attenuated epithelial invasiveness
same,Epi-mediated activation of QseC,"QseC; 6 μM 2-AG, 50 μM epinephrine, 30 minutes",inhibited Epi-mediated activation of QseC
same,QseC activation (autophosphorylation),QseC; QseC reconstituted into liposomes,significantly diminished
"Cc1c(C(=O)NN2CCCCC2)nn(-c2ccc(Cl)cc2Cl)c1-c1ccc(I)cc1 [AM251, reference compound]",effect on 2-AG-mediated inhibition of QseC activity,"QseC; 6 μM 2-AG and AM251, 30 minutes, liposome system",prevented 2-AG-mediated inhibition of QseC activity
CCCCC/C=C\C/C=C\C/C=C\C/C=C\CCCC(=O)O [Arachidonic acid],growth of S. aureus,Staphylococcus aureus,inhibits the growth
"C=C(C)[C@@H]1CCC(C)=C[C@H]1c1c(O)cc(CCCCC)cc1O [CBD, cannabidiol]",decrease in expression of espA compared to the vehicle,"EHEC strain 86-24; wt EHEC 86-24, 50 μM CBD",20.6 fold
same,reduction in expression of espA between the control and CBD,"EHEC strain 86-24; ΔqseC deletion strain, 50 μM CBD",17.5 fold
same,ability of Citrobacter rodentium to colonize the intestines of mice,Citrobacter rodentium,inhibited the ability
same,growth rate and growth yield,EHEC 86-24 [17],neither the growth rate nor the growth yield for the wt and ΔqseC deletion strains were significantly altered
same,expression of EspA protein (immunoblot),EHEC 86-24 [18],reduced expression of EspA
O=C(Oc1ccc([N+](=O)[O-])cc1)N1CCC(C(O)(c2ccc3c(c2)OCO3)c2ccc3c(c2)OCO3)CC1 [JZL184],colonization of cecum tissues by C. rodentium,C. rodentium [19],decreases colonization of cecum tissues
"CCCCC/C=C\C/C=C\C/C=C\C/C=C\CCCC(=O)NCCO [anandamide, reference compound]",LEE activity (EspA and EspB secretion),"EHEC [1]; anandamide 100 or 200 nM, late-log phase",does not alter LEE activity
